Results as given in patent US20220048893A1, “Compounds for Treating Neurodegenerative Diseases and Cancers” (Hongyi & Associates LLC, priority 2019, published 2022).

Assay: In vivo PK study, oral, plasma and brain
Parameters: species or system Sprague Dawley rats; AUC(0-t) / AUC(0-inf): concentration or dose not given beside the values
Conditions: for brain permeability compared to Nilotinib and Imatinib: in vivo PK studies; for Kp / AUC(0-inf) / AUC(0-t) / Cmax / Tmax / half-life: rat, oral, Sprague Dawley rats; for Kp: brain and plasma, read-out: AUC(0-t) Brain/ AUC(0-t) plasma
Experimental: In the PK profiling study, Compounds 1 and 2 were administered orally to three Sprague Dawley rats. The animals were fasted overnight before drug administration. The food supply were resumed 4 hrs post dose. Blood samples were collected at 8 time points after dose: 0.25 h, 0.5 h, 1 h, 2 h, 4 h, 6 h, 8 h and 24 h. There are three samples for each time point. Brain tissues were collected after 24 hour blood sample collection. Drug concentrations in blood and brain were analyzed by LC-MS/MS. The analytical results were confirmed using quality control samples for intra-assay variation. The accuracy of >66.7% of the quality control samples should be between 80-120% of the known values. Standard set of parameters including area under the curve (AUC(0-t) and AUC(0-∞)), elimination half-life (T1/2), maximum plasma concentration (Cmax), time to reach maximum plasma concentration (Tmax) were calculated using noncompartmental analysis modules in FDA certified pharmacokinetic program Phoenix WinNonlin 7.0 (Pharsight, USA). The ratio of brain to plasma concentration were calculated by the concentration in brain tissue versus the concentration in plasma.

Row | brain permeability compared to Nilotinib and Imatinib | Kp | AUC(0-inf) (Brain) | AUC(0-t) (Brain) | Cmax (Brain) | Tmax (Brain) | half-life (Brain) | AUC(0-inf) (Plasma) | AUC(0-t) (Plasma) | Cmax (Plasma) | Tmax (Plasma) | half-life (Plasma) | SMILES
1 | much improved brain permeability | 0.142 | 25.6 µg·h/mL | 13.1 µg·h/mL | 0.796 µg/mL | 6 h | 20.2 h | 219 µg·h/mL | 92 µg·h/mL | 5.38 µg/mL | 6 h | 26.8 h | Cc1ccc(C(=O)Nc2ccc(C3CCN(C)CC3)cc2)cc1Nc1ccnc(-c2cccnc2)n1 [Compound 2, 4-methyl-N-(4-(1-methylpiperidin-4-yl)phenyl)-3-((2-(pyridin-3-yl)pyrimidin-4-yl)amino)benzamide]
2 | much improved brain permeability | 0.121 | 8.74 µg·h/mL | 7.72 µg·h/mL | 0.557 µg/mL | 6 h | 7.1 h | 65.4 µg·h/mL | 64 µg·h/mL | 6.68 µg/mL | 4 h | 3.98 h | Cc1ccc(C(=O)Nc2ccc(CC(C)N(C)C)cc2)cc1Nc1ccnc(-c2cccnc2)n1 (stereo not drawn) [Compound 1, N-(4-(2-(dimethylamino)propyl)phenyl)-4-methyl-3-((2-(pyridin-3-yl)pyrimidin-4-yl)amino)benzamide]
